The results in this text go back to patent US4812443A, “Methods for enhancing differentiation and proliferation of hematopoietic progenitor cells” (Kuraray Co., Ltd., priority 1984, dated 1989).

The test system of one series is corneal reflex. Nature of the series: Local anesthetic action in guinea pigs (corneal reflex). In kind it is in vivo, guinea pig (Hartley-strain). Conditions: up to 0.1%, dropped into the eyes. An excerpt:
(§1) Since the dolichol is a water-insoluble oily liquid, it was used as a solution in sesame oil in the case of oral administration, and as a suspension in a nonionic surfactant (HCO-60, a trade name for a product of Nikko Chemical Co., Ltd.) in the case of intraperitoneal administration and in an in vitro test in the following experiment.
(§2) In the following experiment, ddY-strain male mice, Wistar-strain male rats (Shizuoka Laboratory Animal Center), Japanese white male rabbits (Carely) and Hartley-strain male guinea pigs (Clea Japan Inc.) were used. The animals were kept under conditions including a temperature of 23±1° C., a humidity of 55±10%, an illuminating time (7:00 am to 9.00 pm) and 15 ventilations per hour. The mice and rats were fed with solid feeds MF (a product of Oriental Yeast Co., Ltd.) and the guinea pigs and rabbits were fed with solid feeds GM-3 and RM-1 (Funabashi Farm Co.). They were allowed to take tap water freely. The animals were preliminarily kept for more than one week, and those which were healthy in general conditions were used in the experiments.
Hartley-strain male guinea pigs (370-440 g), 3 per group, were used. Dolichol was dropped in a concentration of 0.001%, 0.01% and 0.1%, respectively, into the eyes of the guinea pigs. […]

Series [1] deals with maximal electroshock seizure. Nature of the series: Anticonvulsive action (maximal electroshock seizure) in mice. In kind it is in vivo, mouse (ddY-strain). Conditions: 150, 300 and 600 mg/kg; one hour after administration; 40 mA, 0.4 msec, 50 Hz, 0.5 sec; vs control.
Excerpt: as §1, §2
ddY-male mice (27-30 g), 6 per group, were used. One hour after administration of dolichol to the mice, an electric current was passed through the corneas of the mice under conditions of 40 mA, 0.4 msec, 50 Hz and 0.5 sec, and the time of duration of tonic extension (T. E.) was measured.

The subject of another series is erythropoiesis. Nature of the series: Erythropoiesis in vivo, 59Fe incorporation in phenylhydrazine-induced anemic mice (Run 6). Details: species or system mouse (BDF1-strain). Particulars: 250 mg/kg twice i.p. On the procedure: Phenylhydrazine was administered to normal mice and hereditarily anemic mice to induce severe hemolytic anemia. Then, the rate of erythropoiesis during recovering of anemia was determined by measuring the rate of radioactive iron (^59 Fe) incorporation into newly formed red blood cells [P. M. Cotes, D. R. Bangham, Nature (London), 191, 1067 (1961)]. The testing method and results are described below.
Phenylhydrazine hydrochloride (60 mg/kg) dissolved in normal saline solution was subcutaneously injected into BDF1 -strain mice (6 weeks old, female) three times, namely on the 1st, 2nd and 4th day of the experiment to produce phenylhydrazine-induced anemic mice. Dolichol in a dose of 250 mg/kg (25 mg of dolichol was emulsified in 1 ml of a 1% aqueous solution of sodium carboxymethyl cellulose; 0.2 ml/20 g of the body weight) was intraperitoneally administered to the mice twice, namely on the 1st and 2nd day. […] On the 6th day, 0.5 ml of the whole blood was taken from each mouse, and the radioactivity of ^59 Fe incorporated into the whole blood during the period of 48 hours was measured by an auto-gamma-counter. […] By assuming that the amount of the whole blood of each mouse was 7% of the body weight, the ^59 Fe incorporation rates were calculated in accordance with the following equation and averaged. […]

The subject of series [2] is late erythrocytic progenitor cells (CFU-e). Nature of the series: Differentiation and proliferation of late erythrocytic progenitor cells (CFU-e), cluster colony formation. In kind it is cell-based, mouse (BDF1-strain). Conditions: 20 μg/ml, Runs 2 to 4. On the procedure:
The mouse bone marrow cells used in the following experiments were all prepared as follows:
BDF1 -strain mice (female, 8 to 10 weeks old) were killed by cervical dislocation, and the femurs were collected under sterile conditions. The bone marrow cells were flushed out from the femurs with α-medium, and formed into a single cell suspension by repeated aspiration with a 26-gauge needle fitted to a 1 ml-syringe. The cells were washed two times with α-medium by centrifugation at 200×G for 5 minutes and used in the following experiments.
In accordance with the method of Murphy et al. mentioned above, mouse bone marrow cells were plated at 2.5×10^4 nuclear cells into 0.5 ml of α-medium containing 0.25 unit of erythropoietin, 30% fetal bovine serum, 1% bovine serum albumin, 0.1 mM 2-mercaptoethanol and 0.4% methyl cellulose with 10 μg of dolichol dissolved in 1 μl of ethanol, 10 μg of dolichyl phosphate dispersed in 0.5 μl of dimethyl sulfoxide, 1 μl of ethanol or 0.5 μl of dimethyl sulfoxide in a 16 mm.phi. tissue culture plate, and incubated at 37° C. in a humidified atmosphere of 5% carbon dioxide in air for 2 days. The number of cluster colonies consisting of 8 to 64 erythroblasts derived from CFU-e in the tissue culture plate was scored with an inverted microscope. The experiment was carried out by 6 replica assays for each group, and the average number of the colonies formed was determined. The results are shown in Table 3, in the rows of Runs 2 to 4.

A further series deals with extracted ileum. Nature of the series: Peripheral action, extracted ileum of guinea pigs. Also on record: species or system guinea pig (Hartley-strain). Particulars: up to 10^-4 g/ml; 32° C.
Excerpt: as §1
In the following experiment, ddY-strain male mice, Wistar-strain male rats (Shizuoka Laboratory Animal Center), Japanese white male rabbits (Carely) and Hartley-strain male guinea pigs (Clea Japan Inc.) were used. The animals were kept under conditions including a temperature of 23±1° C., a humidity of 55±10%, an illuminating time (7:00 am to 9.00 pm) and 15 ventilations per hour. […]
Hartley-strain male guinea pigs (350 to 400 g), 3 per group, were used, and the extracted ileum samples were suspended in Tyrode solution at 32° C. through which air was introduced. The contraction of the ileum was recorded on an ink-writing oscillograph (EMP-3004, Nippon Photoelectric Co. through an isotonic transducer (TD-112S, Nippon Photoelectric Co.). The direct action of dolichol and the antagonistic action of dolichol against acetylcholine, histamine and nicotine in a concentration of 10^-6 g/ml, 10^-5 g/ml, and 10^-4 g/ml, respectively, were examined.

Consider dolichol, for which, in the series with corneal reflex, the “Disappearance of corneal reflex” value is recorded as “no disappearance of corneal reflex” and the Local anesthetic action entry is “no local anesthetic action was observed”. In series [1], the “Time of duration of tonic extension (T. E.)” value is given as “no significant difference was noted”. Besides, the “59Fe incorporation rate (%), dolichol administered group” value in the series on erythropoiesis (48 hours, control group 48.2) was determined as 50.2%. The “Erythropoiesis enhancing ratio (%)” value with erythropoiesis (percent increase of 59Fe incorporation rate vs control) is listed as “+4.2%”. The “Number of colonies formed in the dolichols-added group (CFU-e)” value in series [2] (2 days, erythropoietin 0.25 unit, mean ± S.E., 6 replicas, solvent controls 124.2 ± 2.7, 246.0 ± 5.0, 124.7 ± 2.9) turned out to be 151.0 ± 2.2. Also, in series [2] (vs solvent-added control group), the “Percent increase (%) of colony formation (CFU-e)” value is on record as “+21.6%”. In addition, in the series on extracted ileum, the “Direct action on extracted ileum” value is on record as “no direct action”.
